This note sets out measurements from patent US20230000842A1, “METHODS OF TREATING CARTILAGE DISORDERS THROUGH INHIBITION OF CLK AND DYRK” (SAMUMED, LLC, priority 2019, published 2023).

The target in one assay is CLK2 kinase (Homo sapiens, UniProt P49760). As to the kind of experiment: CLK2 kinase activity assay (Z-lyte FRET).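 Also: FRET read-out as coumarin to fluorescein emission ratio, unphosphorylated peptide as 0% and phosphorylated peptide as 100% controls, duplicate reactions, non-linear regression fit of dose-response curves.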 Type of assay: biochemical. The note with it: Z-lyte Ser/Thr 6 peptide, 60 μM ATP, 1 h at room temperature.
The subject of assay [1] is Wnt pathway activity (SW480 colon carcinoma cells stably expressing the Sp5-Luc reporter). Description: Wnt pathway activity screening assay (Sp5-Luc reporter gene assay). The note with it: Homo sapiens, SW480, Table 4; SW480 cells stably expressing Sp5-Luc reporter, 10-point dose-response from 10 μM, 36 to 48 hours. (In a reporter assay the amount or activity of a reporter protein is the signal.)

For the next assay, the target named is CLK3 kinase (Homo sapiens, UniProt P49761). As to the kind of experiment: CLK3 kinase activity assay (Z-lyte FRET).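 Also: kinase activity read as coumarin/fluorescein emission ratio by FRET, unphosphorylated peptide as 0% and phosphorylated peptide as 100% control, values from non-linear regression of dose-response curves.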 Type of assay: biochemical. The note with it: Z-lyte Ser/Thr 18 peptide, 156 μM ATP, 1 h at room temperature.
Assay [2] concerns MMP-3 levels in supernatant of chondrocytes stimulated with IL1-β. Description: Chondrocyte protection assay compound screening (MMP-3 LANCE Ultra). The note with it: Homo sapiens, Chondrocyte, IL1-β 10 ng/mL overnight, 11-point curves from 3 μM to 0.05 nM; for Emax: read-out: Maximum % Inhibition. Type of assay: cell-based, human. Put shortly:
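Primary human chondrocytes (passage 2–5) in differentiation medium were stimulated with 10 ng/mL IL1-β for an overnight incubation at 37 °C. MMP-3 in 1:7-diluted supernatant was read by TR-FRET immunoassay against a standard curve, normalised to IL1-β-stimulated wells; EC50 and maximum % inhibition came from nonlinear regression.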
For orientation: In TR-FRET formats the signal depends on donor and acceptor labels being close together.

Chain of CLK3 kinase (P49761 whole entry): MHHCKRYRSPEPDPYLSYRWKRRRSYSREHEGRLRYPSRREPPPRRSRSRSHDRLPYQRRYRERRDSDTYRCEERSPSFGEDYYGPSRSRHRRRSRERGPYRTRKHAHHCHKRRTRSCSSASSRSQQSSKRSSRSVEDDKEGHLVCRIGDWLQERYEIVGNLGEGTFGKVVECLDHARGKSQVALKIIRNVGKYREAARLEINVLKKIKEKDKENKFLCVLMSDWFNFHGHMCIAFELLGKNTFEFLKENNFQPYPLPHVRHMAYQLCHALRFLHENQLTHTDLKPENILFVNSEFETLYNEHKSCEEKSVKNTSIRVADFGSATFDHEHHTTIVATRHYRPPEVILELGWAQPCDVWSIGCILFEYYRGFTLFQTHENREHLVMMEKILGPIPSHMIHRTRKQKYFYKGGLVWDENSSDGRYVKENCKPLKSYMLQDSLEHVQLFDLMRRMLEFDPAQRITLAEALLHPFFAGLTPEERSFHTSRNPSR
Chain of CLK2 kinase (P49760 whole entry): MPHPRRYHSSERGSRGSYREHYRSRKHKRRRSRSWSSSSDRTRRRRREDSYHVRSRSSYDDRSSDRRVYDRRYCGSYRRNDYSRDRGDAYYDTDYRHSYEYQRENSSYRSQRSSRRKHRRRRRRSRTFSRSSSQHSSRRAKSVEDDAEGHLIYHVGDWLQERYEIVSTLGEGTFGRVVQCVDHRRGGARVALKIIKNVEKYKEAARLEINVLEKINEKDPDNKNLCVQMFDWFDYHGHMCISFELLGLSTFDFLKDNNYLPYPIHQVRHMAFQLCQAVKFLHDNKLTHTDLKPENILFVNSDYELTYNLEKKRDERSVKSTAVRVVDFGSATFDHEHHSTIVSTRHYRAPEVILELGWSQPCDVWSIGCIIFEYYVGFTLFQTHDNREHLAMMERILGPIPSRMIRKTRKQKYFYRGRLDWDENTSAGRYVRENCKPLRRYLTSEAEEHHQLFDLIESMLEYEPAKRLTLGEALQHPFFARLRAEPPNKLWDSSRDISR

As usually defined, the EC50 is the concentration that produces a half-maximal response. Higher therefore signals lower potency in that assay. As to `CN1CCN(c2cc(C(=O)Nc3cc4nc(-c5cnn(C)c5)ccc4cn3)ccn2)CC1` [compound 606], the 50% effective concentration (EC50) at CLK2 kinase is 4 nM; in assay [1], 102 nM; at CLK3 kinase, 60 nM; in assay [2] it was not below 3000 nM. Also, the Emax in assay [2] is 76.1%.

As for `Cc1ncc(NC(=O)c2n[nH]c3ccc(-c4cnn(C5CCN(C)CC5)c4)cc23)s1` [compound 114], the EC50 at CLK2 kinase is 1 nM; in assay [1], 95 nM; at CLK3 kinase, 48 nM; in assay [2], not below 3000 nM. Moreover, in assay [2], the Emax turned out to be 62.8%.

Regarding `O=C(Nc1cc2cc(-c3cncc(NC4CCNCC4)n3)ccc2cn1)C1CCCCC1` [compound 601], the concentration giving a half-maximal response (EC50) was 2 nM on CLK2 kinase, 319 nM in assay [1], 59 nM at CLK3 kinase and not below 3000 nM in assay [2]. In assay [2], the Emax amounted to 91.6%.

With `CC(C)N1CCC(c2nc(C(=O)Nc3cc4cc(-c5cnn(C)c5)ccc4cn3)co2)CC1` [compound 563], the EC50 at CLK2 kinase was 5 nM; in assay [1], 80 nM; at CLK3 kinase, 26 nM; in assay [2], 57.3 nM. Besides, the Emax in assay [2] was determined as 72.4%.

For the compound `CC(C)CC(=O)Nc1cncc(-c2cnc3[nH]nc(-c4nc5c(-c6cccc(F)c6)cncc5[nH]4)c3c2)c1` [compound 125], the EC50 on CLK2 kinase is 1 nM; in assay [1], 0.6 nM; at CLK3 kinase, 57 nM; in assay [2] it was not below 3000 nM.

Take `CCN(C)Cc1cncc(-c2cnc3[nH]nc(-c4nc5c(-c6cccc(F)c6)cncc5[nH]4)c3c2)c1` [compound 140]: the EC50 stood at 2 nM at CLK2 kinase, 643 nM in assay [1], 22 nM at CLK3 kinase and 0.8 nM in assay [2]. Also, the Emax in assay [2] came to 76.4%.

Turning to `Cn1cc(-c2cc3c(C(=O)Nc4ccc5c(c4)CNC5)n[nH]c3cc2F)cn1` [compound 112], the EC50 at CLK2 kinase stood at 1 nM; in assay [1], 793 nM; at CLK3 kinase, 116 nM; in assay [2], 1200 nM. The Emax in assay [2] is 88.3%.

For the compound `O=C(CC1CCNCC1)Nc1cncc(-c2ccc3[nH]nc(-c4nc5c(-c6ccsc6)nccc5[nH]4)c3n2)c1` [compound 248], the EC50 was 1 nM at CLK2 kinase, more than 10000 nM in assay [1], 66 nM on CLK3 kinase and not below 3000 nM in assay [2]. In assay [2], the Emax stood at 40.7%.

For the compound `O=C(Nc1ccc(OC(F)F)cc1)c1n[nH]c2ccc(-c3cnc4n3CCNC4)cc12` [compound 116], the EC50 at CLK2 kinase was found to be 1 nM; in assay [1] it was 684 nM; at CLK3 kinase, 391 nM; in assay [2] it was 13 nM. For the same compound, the Emax in assay [2] stood at 61.2%.

On to `CN1CCC(Oc2ccc3[nH]c(-c4n[nH]c5ccc(-c6cnn(C)c6)cc45)nc3c2)CC1` [compound 299], for which the EC50 at CLK2 kinase turned out to be 1 nM; in assay [1] it was 18.3 nM; at CLK3 kinase, 29 nM; in assay [2], 170 nM. The Emax in assay [2] was found to be 100%.

Regarding `Cn1cc(-c2ccc3cnc(NC(=O)c4ccc5nccnc5c4)cc3n2)cn1` [compound 608], the EC50 at CLK2 kinase is 8 nM; in assay [1], 447 nM; on CLK3 kinase, 141 nM; in assay [2], not below 3000 nM. Besides, the Emax in assay [2] was 18.3%.

For `COc1cncc(C(=O)Nc2c[nH]nc2C(=O)Nc2ccc3c(c2)CCN(C)C3)c1` [compound 9], the EC50 was 45 nM at CLK2 kinase, 558 nM in assay [1], 6090 nM on CLK3 kinase and not below 3000 nM in assay [2]. Also, the Emax in assay [2] turned out to be 65.6%.

`O=C(Nc1ccc(C2CCC(F)(F)C2)nc1)c1n[nH]cc1C#Cc1cccnc1` (stereo not shown) [compound 27]: the EC50 is 32 nM on CLK2 kinase, more than 10000 nM in assay [1], more than 10000 nM at CLK3 kinase and not below 3000 nM in assay [2]. Besides, the Emax in assay [2] was determined as 88.5%.

For `O=C(Nc1cc2cc(-c3cncc(CN4CCC(O)CC4)c3)ccc2cn1)c1ccc(F)cc1` [compound 597], the EC50 on CLK2 kinase amounted to 9 nM; in assay [1], 382 nM; on CLK3 kinase, 94 nM; in assay [2], 2.9 nM. Also, the Emax in assay [2] came out at 3.7%.

As for `O=C(Nc1c[nH]nc1C(=O)Nc1ccc(N2CCCC2)nc1)c1cncc(OC2CCNCC2)c1` [compound 11], the concentration giving a half-maximal response (EC50) on CLK2 kinase is 9 nM; in assay [1] it was 2.5 nM; at CLK3 kinase it was 5150 nM; in assay [2], not below 3000 nM. Moreover, the Emax in assay [2] came to 80%.

For `CC(C)NC(=O)c1n[nH]c2ccc(-c3cncc(NC4CCNCC4)n3)cc12` [compound 105], the EC50 on CLK2 kinase came out at 1 nM; in assay [1] it was 2400 nM; on CLK3 kinase, 2440 nM; in assay [2], 2740 nM. Moreover, the Emax in assay [2] was found to be 53.1%.

Regarding `c1cnc2cc(-c3n[nH]c4ccc(-c5cncc(CN6CCCCC6)c5)cc34)[nH]c2c1` [compound 449], the EC50 on CLK2 kinase was found to be 2 nM; in assay [1] it was 165 nM; at CLK3 kinase it was 19 nM; in assay [2], 319 nM. For the same compound, the Emax in assay [2] was 100%.

For `COc1cncc(C(=O)Nc2c[nH]nc2C(=O)Nc2ccc3c(c2)CCNC3)c1` [compound 8], the EC50 at CLK2 kinase came out at 27 nM; in assay [1], 613 nM; at CLK3 kinase, 6160 nM; in assay [2], 342 nM. In addition, the Emax in assay [2] was found to be 76%.

Turning to `Cc1n[nH]c2ccc(-c3cncc(NCC4(F)CNC4)n3)cc12` [compound 48], the EC50 on CLK2 kinase came to 3 nM; in assay [1], 780 nM; at CLK3 kinase, 1100 nM; in assay [2], 2270 nM. Also, the Emax in assay [2] stood at 100%.

For `O=C(Nc1cncc(-c2ccc3[nH]nc(-c4cc5cnccc5[nH]4)c3c2)c1)C1CCCCC1` [compound 431], the EC50 at CLK2 kinase came out at 1 nM; in assay [1], 285 nM; on CLK3 kinase, 18 nM; in assay [2] it was 6.7 nM. In assay [2], the Emax was 100%.

Turning to `Cc1ncc(C(=O)Nc2cc3nc(-c4cnc(C)n4C)ccc3cn2)s1` [compound 611], the EC50 at CLK2 kinase is 3 nM; in assay [1], 107 nM; at CLK3 kinase, 31 nM; in assay [2] it was 8.7 nM. Besides, the Emax in assay [2] is 68.3%.

For `Cc1[nH]nc(C(=O)Nc2ccc(CN3CCCC3)cc2)c1/C=C/c1cccnc1` [compound 18], the EC50 on CLK2 kinase was 20 nM; in assay [1], 2150 nM; on CLK3 kinase, 3990 nM; in assay [2] it was 1050 nM. Also, the Emax in assay [2] amounted to 25.5%.

Regarding `O=C(Nc1ccc(CN2CCCC2)cc1)c1n[nH]c2ccc(-c3cnn(C4CC4)c3)cc12` [compound 113], the concentration giving a half-maximal response (EC50) is 1 nM at CLK2 kinase, 451 nM in assay [1], 133 nM at CLK3 kinase and not below 3000 nM in assay [2]. For the same compound, the Emax in assay [2] turned out to be 57%.

As for `O=C(Nc1cccnc1)c1n[nH]c2ccc(-c3cncc(CN4CC(CO)(CO)C4)c3)cc12` [compound 69], the EC50 on CLK2 kinase is 2 nM; in assay [1], more than 10000 nM; on CLK3 kinase it was 62 nM; in assay [2], 69.7 nM. In addition, the Emax in assay [2] was 12.3%.

For the compound `Cc1[nH]nc(C(=O)Nc2ccc(OC3CCN(C)CC3)nc2)c1/C=C/c1cccnc1` [compound 22], the EC50 on CLK2 kinase is 7 nM; in assay [1] it was more than 10000 nM; on CLK3 kinase, 2330 nM; in assay [2] it was 17.8 nM. Further, in assay [2], the Emax came out at 64.6%.

On to `NC1CN(c2cncc(-c3ccc4[nH]nc(-c5nc6ccncc6[nH]5)c4c3)c2)C1` [compound 205], for which the EC50 is 1 nM at CLK2 kinase, 344 nM in assay [1], 182 nM on CLK3 kinase and 20.8 nM in assay [2]. Moreover, in assay [2], the Emax was 61.5%.

Turning to `CN1CCN(c2cc(C(=O)Nc3ncc4ccc(-c5cnn(C)c5)cc4n3)ccn2)CC1` [compound 607], the EC50 at CLK2 kinase is 6 nM; in assay [1], 468 nM; on CLK3 kinase, 135 nM; in assay [2], 417 nM. Moreover, in assay [2], the Emax is 79.7%.

Take `CCNCc1cncc(-c2ccc3[nH]nc(-c4nc5c(-c6ccccn6)nccc5[nH]4)c3c2)c1` [compound 199]: the EC50 on CLK2 kinase was 2 nM; in assay [1], 2130 nM; at CLK3 kinase, 136 nM; in assay [2] it was 2.4 nM. Besides, the Emax in assay [2] stood at 80.9%.

For the compound `CC#CC(=O)Nc1cc2cc(-c3cnn(C)c3)ccc2cn1` [compound 539], the EC50 at CLK2 kinase is 7 nM; in assay [1] it was 513 nM; on CLK3 kinase, 123 nM; in assay [2] it was 32.8 nM. Also, in assay [2], the Emax amounted to 42.3%.

Take `CN1CC=C(c2cc(C(=O)Nc3cc4cc(-c5cncc(NC(C)(C)C)n5)cnc4cn3)ccn2)CC1` [compound 612]: the concentration for a half-maximal effect (EC50) at CLK2 kinase was 5 nM; in assay [1], 357 nM; on CLK3 kinase, 12 nM; in assay [2], not below 3000 nM. The Emax in assay [2] was 38.6%.

In the case of `O=C(Nc1c[nH]nc1-c1nc2c(-c3cccc(F)c3)cccc2[nH]1)c1cccnc1` [compound 15], the concentration giving a half-maximal response (EC50) at CLK2 kinase came to 2 nM; in assay [1], 2.9 nM; on CLK3 kinase, 485 nM; in assay [2], 76.5 nM. The Emax in assay [2] came out at 100%.
